Data on 23 molecules can be found in publication PMC10113378, “Synthesis, in vitro α-glucosidase inhibitory activities, and molecular dynamic simulations of novel 4-hydroxyquinolinone-hydrazones as potential antidiabetic agents” (Scientific Reports, 2023).

For data set [1], the target named is α-glucosidase. As to conditions: cited from earlier work.
The target of data set [2] is T1, α-glucosidase enzyme (EC3.2.1.20, Saccharomyces cerevisiae) (Saccharomyces cerevisiae, UniProt P53341).
T1 construct: purchased Sigma-Aldrich
The experiment in a line: biochemical. As to conditions: mean ± SD; substrate p-nitrophenyl glucopyranoside 4 mM, pH 6.8, 37 °C; read-out: α-Glucosidase inhibition IC50. On the procedure: α-glucosidase enzyme (EC3.2.1.20, Saccharomyces cerevisiae, 20 U/mg) and substrate (p-nitrophenyl glucopyranoside) were purchased from Sigma-Aldrich. 1 mg of α-glucosidase was dissolved in potassium phosphate buffer (50 mM, pH = 6.8) to obtain the initial activity of 1 U/ml. Then, 20 µl of this enzyme solution was incubated with 135 µl of potassium phosphate buffer and 20 µl of test compound at various concentrations in DMSO. […] The percentage of inhibition for each entry was calculated by using the following formula: %Inhibition=Abscontrol-Abssample/Abscontrol×100.
IC50 values were obtained from the nonlinear regression curve using the Logit method[28],[29].

Data set [3] concerns the target T2, α-glucosidase (Saccharomyces cerevisiae, UniProt P53341).
T2 construct: purchased Sigma-Aldrich
The experiment in a line: Enzyme kinetic studies (Lineweaver–Burk plot, secondary plot). It is filed as biochemical. The settings on record: for mode of inhibition: Lineweaver–Burk plot, Km increased, Vmax unchanged; for Ki: from plot of Km versus inhibitor concentration, read-out: inhibition constant, Ki. As to the method: A Lineweaver–Burk plot was generated to identify the type of inhibition and the Michaelis–Menten constant (Km) value was determined from the plot between the reciprocal of the substrate concentration (1/[S]) and reciprocal of enzyme rate (1/V) over various inhibitors concentrations[30],[31].

Like-named read-outs stand apart in the source and are kept apart here.

T1 sequence (P53341 whole entry): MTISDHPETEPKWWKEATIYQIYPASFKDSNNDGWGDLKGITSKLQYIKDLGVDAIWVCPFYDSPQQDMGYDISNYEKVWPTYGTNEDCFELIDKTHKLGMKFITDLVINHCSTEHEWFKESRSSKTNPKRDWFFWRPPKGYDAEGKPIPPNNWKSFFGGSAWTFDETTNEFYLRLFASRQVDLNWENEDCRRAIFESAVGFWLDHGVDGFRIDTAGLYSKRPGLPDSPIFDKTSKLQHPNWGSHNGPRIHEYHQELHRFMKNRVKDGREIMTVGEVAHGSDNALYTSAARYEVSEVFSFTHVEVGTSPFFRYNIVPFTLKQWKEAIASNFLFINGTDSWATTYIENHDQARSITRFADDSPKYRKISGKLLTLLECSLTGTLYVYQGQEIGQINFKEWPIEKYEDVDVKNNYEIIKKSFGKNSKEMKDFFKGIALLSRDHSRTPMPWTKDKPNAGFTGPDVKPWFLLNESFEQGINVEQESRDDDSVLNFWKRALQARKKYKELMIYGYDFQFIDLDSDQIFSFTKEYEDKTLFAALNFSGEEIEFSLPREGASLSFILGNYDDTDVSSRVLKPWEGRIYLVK
T2 sequence (P53341 whole entry): as above

Take `Oc1ccc2ccccc2n1` [A, 2-hydroxyquinoline]: at α-glucosidase [1] (Fig. 1), the half-inhibitory concentration (IC50) (in general, the concentration that inhibits the measured activity by half) is 64.4 ± 1.7 µg/mL.

As for `C[C@H]1O[C@H](O[C@H]2[C@H](O)[C@@H](O)[C@@H](O[C@H]3[C@H](O)[C@@H](O)C(O)O[C@@H]3CO)O[C@@H]2CO)[C@H](O)[C@@H](O)[C@@H]1N[C@H]1C=C(CO)[C@@H](O)[C@H](O)[C@H]1O` (some centres unmarked) [Acarbose], the α-glucosidase inhibition with α-glucosidase [1] (at 128 μg/mL) was 75.55%.

For `O=C(N/N=C/c1ccc(O)c(O)c1)c1ccc(-c2nnc(-c3ccc4ncccc4c3)o2)cc1` [C], the IC50 at α-glucosidase [1] (quinoline–oxadiazole Schiff bases, read-out: IC50) is 2.6 ± 0.01 µM.

Turning to `O=C(N/N=C/c1ccccc1)c1c(O)nc2ccccc2c1O` [Compound 6a, (E)-N'-benzylidene-4-hydroxy-2-oxo-1,2-dihydroquinoline-3-carbohydrazide], the IC50 in data set [2] amounted to 382.6 ± 0.9 µM.

On to `O=C(N/N=C/c1ccccc1F)c1c(O)c2ccccc2[nH]c1=O` [Compound 6b, (E)-N'-(2-fluorobenzylidene)-4-hydroxy-2-oxo-1,2-dihydroquinoline-3-carbohydrazide], for which the melting point (as a rule, the temperature of the solid-liquid transition) was in the range of 190 to 192 °C. For the same molecule, the IC50 in data set [2] was 247 ± 1.1 µM.

In the case of `O=C(N/N=C/c1ccc(F)cc1)c1c(O)nc2ccccc2c1O` [Compound 6c, (E)-N'-(4-fluorobenzylidene)-4-hydroxy-2-oxo-1,2-dihydroquinoline-3-carbohydrazide], in data set [2], the IC50 amounted to 195.3 ± 1.2 µM.

`O=C(N/N=C/c1ccc(Cl)cc1)c1c(O)c2ccccc2[nH]c1=O` [Compound 6d, (E)-N'-(4-chlorobenzylidene)-4-hydroxy-2-oxo-1,2-dihydroquinoline-3-carbohydrazide] gave a melting point of 194 to 196 °C. Also, the concentration for half-maximal inhibition (IC50) in data set [2] is 131.6 ± 0.3 µM.

With `O=C(N/N=C/c1cccc(Br)c1)c1c(O)c2ccccc2[nH]c1=O` [Compound 6e, (E)-N'-(3-bromobenzylidene)-4-hydroxy-2-oxo-1,2-dihydroquinoline-3-carbohydrazide], the melting point lay in the range of 187 to 189 °C. Besides, the IC50 in data set [2] turned out to be 436.7 ± 1 µM.

Regarding `O=C(N/N=C/c1ccc(Br)cc1)c1c(O)c2ccccc2[nH]c1=O` [Compound 6f, (E)-N'-(4-bromobenzylidene)-4-hydroxy-2-oxo-1,2-dihydroquinoline-3-carbohydrazide], the melting point was 179 to 181 °C. Besides, the IC50 in data set [2] worked out at 520.2 ± 1.5 µM.

Molecule `O=C(N/N=C/c1ccc([N+](=O)[O-])cc1)c1c(O)c2ccccc2[nH]c1=O` [Compound 6g, (E)-4-hydroxy-N'-(4-nitrobenzylidene)-2-oxo-1,2-dihydroquinoline-3-carbohydrazide] showed a melting point of 208 to 210 °C. For the same molecule, the half-maximal inhibitory concentration (IC50) in data set [2] was determined as 120.5 ± 0.8 µM.

Regarding `Cc1ccc(/C=N/NC(=O)c2c(O)c3ccccc3[nH]c2=O)cc1` [Compound 6h, (E)-4-hydroxy-N'-(4-methylbenzylidene)-2-oxo-1,2-dihydroquinoline-3-carbohydrazide], the melting point is 180 to 182 °C. Further, the IC50 in data set [2] stood at 136.7 ± 0.5 µM.

With `COc1ccc(/C=N/NC(=O)c2c(O)c3ccccc3[nH]c2=O)cc1` [Compound 6i, (E)-4-hydroxy-N'-(4-methoxybenzylidene)-2-oxo-1,2-dihydroquinoline-3-carbohydrazide], the melting point lay within 189 to 191 °C. In data set [2], the half-maximal inhibitory concentration (IC50) came to 259 ± 1 µM.

`O=C(N/N=C/c1ccccc1O)c1c(O)c2ccccc2[nH]c1=O` [Compound 6j, (E)-4-hydroxy-N'-(2-hydroxybenzylidene)-2-oxo-1,2-dihydroquinoline-3-carbohydrazide] had a melting point of 177 to 179 °C. In addition, the concentration for half-maximal inhibition (IC50) in data set [2] came out at 154.8 ± 0.1 µM.

Take `O=C(N/N=C/c1cccc(O)c1)c1c(O)c2ccccc2[nH]c1=O` [Compound 6k, (E)-4-hydroxy-N'-(3-hydroxybenzylidene)-2-oxo-1,2-dihydroquinoline-3-carbohydrazide]: the melting point fell in the range of 186 to 188 °C. Further, the half-inhibitory concentration (IC50) in data set [2] was determined as 196.3 ± 0.7 µM.

On to `O=C(N/N=C/c1cc(Br)ccc1O)c1c(O)c2ccccc2[nH]c1=O` [Compound 6l, (E)-N'-(5-bromo-2-hydroxybenzylidene)-4-hydroxy-2-oxo-1,2-dihydroquinoline-3-carbohydrazide], for which the melting point is 171 to 173 °C. The half-inhibitory concentration (IC50) in data set [2] was 94.2 ± 1 µM. Besides, at α-glucosidase [3], the mode of inhibition entry is given as “competitive inhibition” and the inhibition constant Ki (in general, a measure of affinity in units of concentration, obtained from inhibition or displacement) came out at 92 µM.

`O=C(N/N=C/c1cc([N+](=O)[O-])ccc1O)c1c(O)c2ccccc2[nH]c1=O` [Compound 6m, (E)-4-hydroxy-N'-(2-hydroxy-5-nitrobenzylidene)-2-oxo-1,2-dihydroquinoline-3-carbohydrazide] showed a melting point of 198 to 200 °C. Also, the half-maximal inhibitory concentration (IC50) in data set [2] stood at 93.5 ± 0.6 µM. On α-glucosidase [3], the mode of inhibition entry is “competitive inhibition” and the inhibition constant (Ki) is 93 µM.

Turning to `O=C(N/N=C/c1ccc(O)cc1O)c1c(O)c2ccccc2[nH]c1=O` [Compound 6n, (E)-N'-(2,4-dihydroxybenzylidene)-4-hydroxy-2-oxo-1,2-dihydroquinoline-3-carbohydrazide], the melting point is 185 to 187 °C. The IC50 in data set [2] amounted to 187.8 ± 0.3 µM.

In turn, `COc1cc(/C=N/NC(=O)c2c(O)c3ccccc3[nH]c2=O)ccc1O` [Compound 6o, (E)-4-hydroxy-N'-(4-hydroxy-3-methoxybenzylidene)-2-oxo-1,2-dihydroquinoline-3-carbohydrazide] yielded a melting point of 193 to 195 °C. Moreover, the IC50 in data set [2] stood at 575.6 ± 0.4 µM.

Turning to `O=C(N/N=C/c1ccc(O)c(O)c1)c1ccc2ncccc2c1` [D], the IC50 at α-glucosidase [1] (quinoline derivatives, read-out: IC50) is 6.2 ± 0.3 µM.

For the molecule `O=C(Cc1ccc(Cl)cc1Cl)N/N=C1/C(=O)Nc2cc(Br)ccc21` [E], the IC50 at α-glucosidase [1] (isatin-hydrazone structure, recent research (reference number not given), read-out: IC50) was 2.2 ± 0.25 µM.

Turning to `O=C(N/N=C/c1c(O)cc(O)cc1O)c1ccc(-c2cc(=O)c3ccccc3o2)cc1` [F], on α-glucosidase [1] (flavone-hydrazone, read-out: IC50), the 50% inhibitory concentration (IC50) is 15.4 ± 0.22 µM.

For the molecule `O=C(N/N=C/c1ccc(Cl)cc1)c1ccc(-c2nc3ccccc3s2)cc1` [G], the IC50 at α-glucosidase [1] (benzothiazole-bearing benzohydrazide, read-out: IC50) was 5.31 ± 0.03 µM.

As for `O=C(N/N=C/c1cccc(F)c1)c1ccc2nc(-c3ccccc3)c(-c3ccccc3)nc2c1` [H], in the data set with α-glucosidase [1], the mode of inhibition entry is reported as “competitive mode of inhibition”. Moreover, the IC50 on α-glucosidase [1] (read-out: IC50) was 111 µM.
